Test results: US20030148970A1, “Methods for specifically inhibiting histone deacetylase-4” (priority 2001, published 2003)

Key:
human HDAC-2 RNA = assay: antisense ODN screen in T24 cells, Northern blot, HDAC-2; assay type: cell-based; details: 100 nM, 24 hours
Method: Twenty-four phosphorothioate ODNs containing sequences complementary to the 5′ or 3′ UTR of the human HDAC-2 gene (GenBank Accession No. U31814) were screened as above. […] HDAC-2 MM was created as a control; compared to the antisense oligo, it contains a 7-base mismatch.
(§1) Briefly, human A549 and/or T24 human bladder carcinoma cells were seeded in 10 cm tissue culture dishes one day prior to oligonucleotide treatment. The cell lines were obtained from the American Type Culture Collection (ATCC) (Manassas, Va.) and were grown under the recommended culture conditions. Before the addition of the oligonucleotides, cells were washed with PBS (phosphate buffered saline). Next, lipofectin transfection reagent (GIBCO BRL Mississauga, Ontario, Calif.), at a concentration of 6.25 μg/ml, was added to serum free OPTIMEM medium (GIBCO BRL, Rockville, Md.), which was then added to the cells. The oligonucleotides to be screened were then added directly to the cells (i.e., one oligonucleotide per plate of cells). Mismatched oligonucleotides were used as controls. The same concentration of oligonucleotide (e.g., 50 nM) was used per plate of cells for each oligonucleotide tested.
(§2) Cells were harvested, and total RNAs were analyzed by Northern blot analysis. Briefly, total RNA was extracted using RNeasy miniprep columns (QIAGEN). […]

human HDAC-2 protein = assay: Western blot of HDAC-2 protein in A549 cells; assay type: cell-based; details: 50 nM, 48 hours
Method: (§3) OSDN treatment conditions were as previously described.
(§4) Cells were lysed in buffer containing 1% Triton X-100, 0.5% sodium deoxycholate, 5 mM EDTA, 25 mM Tris-HCl, pH 7.5, plus protease inhibitors. Total protein was quantified by the protein assay reagent from Bio-Rad (Hercules, Calif.). 100 ug of total protein was analyzed by SDS-PAGE. Next, total protein was transferred onto a PVDF membrane and probed with various HDAC-specific primary antibodies. Rabbit anti-HDAC-1 (H-51), anti-HDAC-2 (H-54) antibodies (Santa Cruz Biotechnologies, Santa Cruz, Calif.) were used at 1:500 dilution. Rabbit anti-HDAC-3 antibody (Sigma, St. Louis, Mo.) was used at a dilution of 1:1000. Anti-HDAC-4 antibody was prepared as previously described (Wang, S. H. et al., (1999) Mol. Cell. Biol. 19:7816-27), and was used at a dilution of 1:1000. Anti-HDAC-6 antibody was raised by immunizing rabbits with a GST fusion protein containing a fragment of HDAC-6 protein (amino acid #990 to #1216, GenBank Accession No. AAD29048). Rabbit antiserum was tested and found only to react specifically to the human HDAC-6 isoform. HDAC-6 antiserum was used at 1:500 dilution in Western blots to detect HDAC-6 in total cell lysates. Horse Radish Peroxidase conjugated secondary antibody was used at a dilution of 1:5000 to detect primary antibody binding. […]

A549 = assay: Cell Death Detection ELISA apoptosis, A549; assay type: cell-based, human; details: 48 Hour Treatment; TSA at 100 ng/ml
Method: (§5) In order to determine the effect of HDAC OSDNs on cell growth and cell death through apoptosis, A549 or T24 cells, MDAmb231 cells, and HMEC cells (ATCC, Manassas, Va.) were treated with HDAC OSDNs as previously described.
(§6) For the apoptosis study, cells were analyzed using the Cell Death Detection ELISA Plus kit (Roche Diagnostic GmBH, Mannheim, Germany) according to the manufacturer's directions. Typically, 10,000 cells were plated in 96-well tissue culture dishes for 2 hours before harvest and lysis. Each sample was analyzed in duplicate. ELISA reading was done using a MR700 plate reader (DYNEX Technology, Ashford, Middlesex, England) at 410 nm. The reference was set at 490 nm.

T24 = assay: Cell Death Detection ELISA apoptosis, T24; assay type: cell-based, human; details: 48 Hour Treatment; TSA at 100 ng/ml
Method: as §5, §6

HMEC = assay: Cell Death Detection ELISA apoptosis, HMEC; assay type: cell-based, human; details: 48 Hour Treatment; TSA at 100 ng/ml; normal cells
Method: as §5, §6

human cancer cells = assay: cell growth analysis (trypan blue) and apoptosis, cancer cells; assay type: cell-based; details: 50 nM
Method: as §5, §6
Cells were harvested and cell numbers counted by trypan blue exclusion using a hemocytometer. Percentage of inhibition was calculated as (100-AS cell numbers/control cell numbers)%.

MDAmb231 = assay: Cell Death Detection ELISA apoptosis, MDAmb231; assay type: cell-based, human; details: 48 Hour Treatment; TSA at 100 ng/ml
Method: as §5, §6

human HDAC-6 protein = assay: Western blot of HDAC-6 protein in A549 cells; assay type: cell-based; details: 50 nM, 48 hours
Method: as §3, §4

human HDAC-6 RNA = assay: antisense ODN screen in T24 cells, Northern blot, HDAC-6; assay type: cell-based; details: 100 nM, 24 hours
Method: Thirteen phosphorothloate ODNs containing sequences complementary to the 5′ or 3′ untranslated regions of the human HDAC-6 gene (GenBank Accession No. AJ011972) were screened as above. […] HDAC-6 MM oligo was created as a control; compared to the antisense oligo, it contains a 7-base mismatch.
as §1, §2

human HDAC-3 RNA = assay: antisense ODN screen in T24 cells, Northern blot, HDAC-3; assay type: cell-based; details: 100 nM, 24 hours
Method: Twenty-one phosphorothioate ODNs containing sequences complementary to the 5′ or 3′ UTR of the human HDAC-3 gene (GenBank Accession No. AF039703) were screened as above. […] HDAC-3 MM oligo was created as a control; compared to the antisense oligo, it contains a a 6-base mismatch.
as §1, §2

human HDAC-3 protein = assay: Western blot of HDAC-3 protein in A549 cells; assay type: cell-based; details: 50 nM, 48 hours
Method: as §3, §4

GADD45 mRNA = assay: RNase protection assay, GADD45 in A549; assay type: cell-based, human; details: TSA 250 ng/ml, 16 hours
Method: (§7) As a control, A549 cells were treated by lipofectin with or without TSA (250 ng/ml) treatment for 16 hours. These RNase protection assays were done according to the following procedure. Total RNA from cells was prepared using “RNeasy miniprep kit” from QIAGEN following the manufacturer's manual. Labeled probes used in the protection assays were synthesized using “hStress-1 multiple-probe template sets” from Pharmingen (San Diego, Calif., U.S.A.) according to the manufacturer's instructions. Protection procedures were performed using “RPA II™ Ribonuclease Protection Assay Kit” from Ambion, (Austin, Tx.) following the manufacturer's instructions. Quantitation of the bands from autoradiograms was done by using Cyclone™ Phosphor System (Packard Instruments Co. Inc., Meriden, Conn.).

p21 mRNA = assay: RNase protection assay, p21 in A549; assay type: cell-based, human; details: TSA 250 ng/ml, 16 hours
Method: as §7

Bax mRNA = assay: RNase protection assay, Bax in A549; assay type: cell-based, human; details: TSA 250 ng/ml, 16 hours
Method: as §7

mammalian HDAC = details: Yoshida et al. 1990; cited from earlier work
[1] = test system: murine erythroleukemia cells; details: Yoshida et al. 1987; cited from earlier work

Molecule	antisense activity, HDAC-2 RNA expression (human HDAC-2 RNA)	expression of HDAC-2 protein (human HDAC-2 protein)	Apoptosis, A549 (A549)	Apoptosis, T24 (T24)	Apoptosis, HMEC (HMEC)	effect on cancer cell growth and apoptosis (human cancer cells)	Apoptosis, MDAmb231 (MDAmb231)	expression of HDAC-6 protein (human HDAC-6 protein)	antisense activity, HDAC-6 RNA expression (human HDAC-6 RNA)	antisense activity, HDAC-3 RNA expression (human HDAC-3 RNA)	expression of HDAC-3 protein (human HDAC-3 protein)	fold induction of transcription, GADD45, A549, TSA vs lipofectin (GADD45 mRNA) [fold]	fold induction of transcription, p21, A549, TSA vs lipofectin (p21 mRNA) [fold]	fold induction of transcription, Bax, A549, TSA vs lipofectin (Bax mRNA) [fold]	inhibition of mammalian HDAC (mammalian HDAC)	induction of differentiation in murine erythroleukemia cells [1]
HDAC-2 AS: 5′-GCTGAGCTGTTCTGATTTGG-3′, antisense to human HDAC2 3′-UTR, U31814 (chemistry not given here)	antisense activity to human HDAC-2	specifically inhibits the expression of the respective HDAC isotype protein	− (“−”: <= 2× fold over non-specific background)	− (“−”: <= 2× fold over non-specific background)	− (“−”: <= 2× fold over non-specific background)	minimal effect on cancer cell growth inhibition	− (“−”: <= 2× fold over non-specific background)	–	–	–	–	–	–	–	–	–
HDAC-6 AS: 5′-CAGGCTGGAATGAGCTACAG-3′, antisense to human HDAC6 3′-UTR, AJ011972 (chemistry not given here)	–	–	− (“−”: <= 2× fold over non-specific background)	− (“−”: <= 2× fold over non-specific background)	− (“−”: <= 2× fold over non-specific background)	no effect on cancer cell growth or apoptosis	− (“−”: <= 2× fold over non-specific background)	specifically inhibits the expression of the respective HDAC isotype protein	antisense activity to human HDAC-6	–	–	–	–	–	–	–
HDAC-3 AS: 5′-CGCTTTCCTTGTCATTGACA-3′, antisense to human HDAC3 3′-UTR, AF039703 (chemistry not given here)	–	–	− (“−”: <= 2× fold over non-specific background)	− (“−”: <= 2× fold over non-specific background)	− (“−”: <= 2× fold over non-specific background)	no effect on cancer cell growth or apoptosis	− (“−”: <= 2× fold over non-specific background)	–	–	antisense activity to human HDAC-3	specifically inhibits the expression of the respective HDAC isotype protein	–	–	–	–	–
CC(/C=C/C(=O)NO)=C\[C@@H](C)C(=O)c1ccc(N(C)C)cc1 [TSA, (R)-Trichostatin A]	–	–	++ (“++”: 3-5× fold)	++ (“++”: 3-5× fold)	+ (“+”: 2-3× fold)	–	++ (“++”: 3-5× fold)	–	–	–	–	0.6	2.8	0.8	potent inhibitor of mammalian HDAC	potent inducer of differentiation
